Results reported in US20250283113A1, “COMPOSITIONS AND METHODS FOR INCREASING DELETION EFFICIENCY OF NUCLEIC ACID SEGMENT BY MODULATION OF NHEJ REPAIR PATHWAY” (GenKOre, Inc., priority 2022, published 2025).

Experiments:
XRCC4 [1] = assay: qRT-PCR of shRNA-mediated inhibition of NHEJ component gene expression (Example 3); type: cell-based, human; settings: AC16 cells, 5 μg shRNA plasmid, 3 days after transfection, FIG. 6
Protocol: (§1) Purification of total RNA was performed, and reverse transcription of total 1 μg RNA was performed with Superscript IV reverse transcriptase (INVITROGEN) using random hexamers. For real-time PCR, 1/20 of the RT product was amplified with the KAPA SYBR FAST qPCR kit (KAPA BIOSYSTEM, Wilmington, MA, USA) using the real-time cycler Quantstudio (THERMO FISHER SCIENTIFIC). The relative amount of mRNA transcripts was measured by the […]. GAPDH and 18s rRNA were used as endogenous controls.
(§2) 5 μg of plasmid vector encoding shRNA was prepared using All-in-one vector (Biofact), transfected into AC16 cells, and harvested 3 days after transfection. Then, mRNA expression of each NHEJ component gene was measured by qRT-PCR. […] The sequences of sense strands of the shRNAs used are described in Table 9.

XRCC4 [2] = assay: Western blot of shRNA-mediated inhibition of NHEJ component gene expression (Example 4); type: cell-based, human; settings: AC16 cells, conditions as Example 3, FIG. 7
Protocol: (§3) Cell extracts were prepared by scraping cells with 60 to 80 μl of RIPA Lysis and Extraction Buffer (THERMOFISHER, 89900) containing protease inhibitor cocktail (ROCHE, 11836153001) at 4° C. and kept on ice for 10 minutes. The concentration of the cleared lysate was measured by Bradford assay (BIO-RAD), in which 20 to 65 μg of protein lysate, depending on the target protein, was loaded onto Mini-PROTEAN® TGX™ Precast Protein Gels (BIO-RAD), electrophoresed, and transferred to PVDF membranes using the Trans-Blot Turbo Transfer System (BIO-RAD). The membrane was incubated at room temperature for 1 hour in a blocking solution containing 5% non-fat dry milk in TBS-T and then incubated at 4° C. overnight with primary antibodies in TBS-T. After incubation with primary antibodies, the membrane was washed four times with TBS-T and then incubated at room temperature for 1 hour in a blocking solution containing anti-rabbit or anti-mouse immunoglobulin conjugated with HRP. The membrane was additionally washed four times with TBS-T and specific protein complexes were visualized with ECL prime (CYTIVA). Antibodies used were against KU70 (CST, 4588S), DNA ligase IV (CST, 146495), XLF (CST, 2854S), Artemis (CST, 13381), GAPDH (CST, 2118L), and XRCC4 (THERMO, MA5-24383).
(§4) shRNA-mediated inhibition of gene expression was analyzed by Western blot analysis. The experimental conditions were the same as in Example 3. […] As a result, the Western blot results were consistent with the qRT-PCR results.

Dclre1c [3] = assay: qRT-PCR of murine Dclre1c mRNA after shRNA treatment in Hepa-1c1c7 cells (Example 11); type: cell-based, mouse; settings: shRNA under U6 promoter, FIG. 14
Protocol: as §1
shRNAs for the Dclre1c gene encoding mouse Artemis protein were selected in Hepa-1c1c7 cells. The shRNAs, which are expressed under the U6 promoter, were generated, and qRT-PCR was performed to measure of the Dclre1c mRNA levels. […] The thus selected shRNAs can be used for in vivo studies using mouse models (for example, DMD mouse model with endogenous murine Dclre1c gene).

Dystrophin Exon 51, E51 [4] = assay: Quantification of large-scale deletion of E51 by qPCR in HEK293T cells (Example 7); type: cell-based, human; settings: 3 days, shRNA + UnCas12f1 + gRNA pair F142/R52, qPCR, compared among shDCLRE1C-2, -3, -5, FIG. 10A
Protocol: Quantitative real-time PCR was used to quantify genomic DNA. Primer sequences were designed for each of the E51 internal regions where large-scale deletion occurs. For qPCR, 20 ng of gDNA was amplified with the KAPA SYBR FAST qPCR kit (KAPA BIOSYSTEM, Wilmington, MA, USA) using the real-time cycler Quantstudio (THERMO FISHER SCIENTIFIC).
(§5) The efficiency of large-scale deletion was analyzed by qPCR 3 days after treatment of HEK293T cells with the selected shRNA (shDCLRE1C-2, -3, or -5)+UnCas12f1 and a pair of gRNA (F142/R52), and the results are shown in FIG. 10A.
For shDCLRE1C and shXRCC6 among the shRNAs selected in Example 4, experiments were conducted in the same manner as in Example 7.1 using the two shRNAs alone, in combination, or one shRNA thereof in two copies, to analyze the efficiency of large-scale deletion of E51.

DCLRE1C [5] = assay: DCLRE1C mRNA level by qPCR in HEK293T cells (Example 7.1); type: cell-based, human; settings: 3 days, compared among shDCLRE1C-2, -3, -5, FIG. 10B
Protocol: as §1, §5

Dystrophin Exon 51, E51 [6] = assay: Whole genome sequencing (WGS) analysis of E51 deletion efficiency (Example 8); type: cell-based, human; settings: HEK293T cells, UnCas12f1 + gRNA pair F142/R52, 5 days after transfection, shRNA in two copies (shDC-3×2), FIG. 11
Protocol: HEK293T cells were transfected with UnCas12f1, a pair of gRNA (F142/R52), and shRNA, and then harvested 5 days after transfection. Genomic DNA was purified using a gDNA prep kit (Maxwell® RSC Cultured Cells DNA, PROMEGA, AS1620). 400 to 500 ng of genomic DNA was fragmented, and libraries were prepared using the MGIEasy FS DNA Library Prep. Kit (MGI Tech) according to the manufacturer's instructions. The libraries were then subjected to WGS using DNBSEQ-T7 (MGI Tech). Sequence reads were mapped to the human genome reference standard, GRCh38. Large-scale deletion efficiency was analyzed by counting reads mapped to the deleted region between a pair of gRNAs, and counts per million (CPM) was calculated. The percentage of deletion was calculated based on the difference in CPM between the sample and the control.
HEK293T cells were transfected with UnCas12f1, a pair of gRNA (F142/R52), and shRNA, and then harvested 5 days after transfection. gDNA was prepared therefrom for WGS that is performed to verify large-scale deletion efficiency. To compare the degree of deletion between the two gRNAs which is induced at both sides of E51, reads were mapped to the reference standard sequence and counting was performed within the deleted region. The data were presented as CPM (Count Per Million) along with each read count. […]

DCLRE1C [7] = assay: qRT-PCR of mRNA expression in AC16 cells transfected with candidate shRNAs (Example 12.1); type: cell-based, human; settings: 5 ug, 3 days, among the five shDCLRE1C shRNAs, FIG. 17
Protocol: as §1
Candidate shRNAs for six genes known to be involved in the NHEJ repair pathway were transfected into previously prepared AC16 cells at a dose of 5 ug, and incubation was performed for 3 days. Then, the cells were harvested and qRT-PCR was used to measure the mRNA expression levels of the genes. The results are shown in FIG. 15 (ATM1 and XRCC4), FIG. 16 (XLF-1 and XRCC6), and FIG. 17 (LIG4 and DCLRE1C). From the results, the optimal shRNAs were selected. Scrambled indicates the control shRNA.

DCLRE1C [8] = assay: qRT-PCR of shRNA-mediated inhibition of NHEJ component gene expression (Example 3); type: cell-based, human; settings: AC16 cells, 5 μg shRNA plasmid, 3 days after transfection, FIG. 6
Protocol: as §1, §2

Artemis = assay: Western blot of shRNA-mediated inhibition of NHEJ component gene expression (Example 4); type: cell-based, human; settings: AC16 cells, conditions as Example 3, FIG. 7
Protocol: as §3, §4

Dystrophin Exon 51, E51 [9] = assay: E51 deletion by UnCas12f1 with shRNA, agarose gel of PCR-amplified E51 region and band intensity analysis (Examples 5, 6); type: cell-based, human; settings: HEK 293T cells, Image J analysis of FIG. 8, comparison between shRNAs, FIG. 9
Protocol: A pair of guide RNAs for the targets F142 and R52 as shown in Table 14 was used to induce E51 deletion. In order to accurately find the optimal shRNA for a large-scale deletion strategy, comparison of the deletion efficiency altered by the selected shRNAs was conducted in HEK 293T cells. The E51 deletion efficiency was measured on an agarose gel in which the PCR-amplified E51 region was decomposed. From the results, it can be seen that treatment with shRNA increases the E51 deletion efficiency caused by UnCas12f1 .
To compare the large-scale deletion efficiency between various treatments with shRNA, intensity analysis was conducted on the deletion band (Del) and the non-deletion band (WT) in FIG. 8, and the relative values were calculated using Image J software.

XRCC6 = assay: qRT-PCR of shRNA-mediated inhibition of NHEJ component gene expression (Example 3); type: cell-based, human; settings: AC16 cells, 5 μg shRNA plasmid, 3 days after transfection, FIG. 6
Protocol: as §1, §2

KU70 = assay: Western blot of shRNA-mediated inhibition of NHEJ component gene expression (Example 4); type: cell-based, human; settings: AC16 cells, conditions as Example 3, FIG. 7
Protocol: as §3, §4

XLF [10] = assay: qRT-PCR of shRNA-mediated inhibition of NHEJ component gene expression (Example 3); type: cell-based, human; settings: AC16 cells, 5 μg shRNA plasmid, 3 days after transfection, FIG. 6
Protocol: as §1, §2

XLF [11] = assay: Western blot of shRNA-mediated inhibition of NHEJ component gene expression (Example 4); type: cell-based, human; settings: AC16 cells, conditions as Example 3, FIG. 7
Protocol: as §3, §4

LIG4 = assay: qRT-PCR of shRNA-mediated inhibition of NHEJ component gene expression (Example 3); type: cell-based, human; settings: AC16 cells, 5 μg shRNA plasmid, 3 days after transfection, FIG. 6
Protocol: as §1, §2

DNA ligase IV = assay: Western blot of shRNA-mediated inhibition of NHEJ component gene expression (Example 4); type: cell-based, human; settings: AC16 cells, conditions as Example 3, FIG. 7
Protocol: as §3, §4

ATM1 [12] = assay: qRT-PCR of shRNA-mediated inhibition of NHEJ component gene expression (Example 3); type: cell-based, human; settings: AC16 cells, 5 μg shRNA plasmid, 3 days after transfection, FIG. 6
Protocol: as §1, §2

ATM1 [13] = assay: Western blot of shRNA-mediated inhibition of NHEJ component gene expression (Example 4); type: cell-based, human; settings: AC16 cells, conditions as Example 3, FIG. 7

GAAUCCACCUUUGUUUCUGA (sense GAAUCCACCUUGUUUCUGA; part of shRNA hairpin, further chemistry not given here) [XRCC4-3]
mRNA expression of NHEJ component gene XRCC4 (XRCC4 [1]): most effective
inhibition of XRCC4 expression by Western blot (XRCC4 [2]): effectively reduced expression of the target genes

GAGCUGGGAGUUCAGGUUCA (listed as RNA, chemistry not given here) [shDclre1c-12]
Dclre1c mRNA level (Dclre1c [3]): greatest decrease

GCACCGCAAGCCUUCUAUA (listed as RNA, chemistry not given here) [shDclre1c-3]
deletion level (efficiency of large-scale deletion of E51) (Dystrophin Exon 51, E51 [4]): highest deletion level
DCLRE1C mRNA level (DCLRE1C [5]): most effectively downregulates DCLRE1C expression
mapped reads in the deleted region (CPM) (Dystrophin Exon 51, E51 [6]): decreased

GCAGAAUUCUUCCCAGUCAUUCAAGAGAUGACUGGGAAGAAUUCUGC (short hairpin RNA, further chemistry not given here) [shDCLRE1C5]
mRNA expression inhibition efficiency (DCLRE1C) (DCLRE1C [7]): highest mRNA expression inhibition efficiency

GCAGAGCUCUCCUUUCACA (sense GCAGAGCUCUCGUUUCACA; part of shRNA hairpin, further chemistry not given here) [DCLRE1C-3]
mRNA expression of NHEJ component gene DCLRE1C (DCLRE1C [8]): most effective
inhibition of DCLRE1C (Artemis) expression by Western blot (Artemis): effectively reduced expression of the target genes
large-scale deletion efficiency (relative intensity of deletion band vs non-deletion band) (Dystrophin Exon 51, E51 [9]): most effective

GCAGAGCUCUCGUUUCACAUUCAAGAGAUGUGAAACGAGAGCUCUGC (short hairpin RNA, further chemistry not given here) [shDCLRE1C3]
mRNA expression inhibition efficiency (DCLRE1C) (DCLRE1C [7]): highest mRNA expression inhibition efficiency

GCAGCAUUGUGCAGAUACA (listed as RNA, chemistry not given here) [XRCC6-1]
mRNA expression of NHEJ component gene XRCC6 (XRCC6): most effective
inhibition of XRCC6 (KU70) expression by Western blot (KU70): effectively reduced expression of the target genes

GCAUGAGUCUGGCAUUACA (listed as RNA, chemistry not given here) [XLF-1]
mRNA expression of NHEJ component gene XLF (XLF [10]): most effective
inhibition of XLF expression by Western blot (XLF [11]): effectively reduced expression of the target genes

GCAUGAUCCUUCUGUAGGA (listed as RNA, chemistry not given here) [LIG4-5]
mRNA expression of NHEJ component gene LIG4 (LIG4): most effective
inhibition of LIG4 (DNA ligase IV) expression by Western blot (DNA ligase IV): effectively reduced expression of the target genes

GGACAAAGCUGACUACAGAUUCAAGAGAUCUGUAGUCAGCUUUGUCC (short hairpin RNA, further chemistry not given here) [shDCLRE1C2]
mRNA expression inhibition efficiency (DCLRE1C) (DCLRE1C [7]): highest mRNA expression inhibition efficiency

GGAGCUGAUUGUAGCAACA (listed as RNA, chemistry not given here) [ATM-3]
mRNA expression of NHEJ component gene ATM (ATM1 [12]): most effective
inhibition of ATM expression by Western blot (ATM1 [13]): effectively reduced expression of the target genes
